Measured values reported in the supplement of paper PMC10307832.

Legend:
Assay in all cases: relative viability (nuclei count vs DMSO), 5 days (fraction); higher = more cells survive
kb NB 142-70 + OSI-027 = compound: C1CSC2=C(C(=O)N1)SC3=C2C=C(C=C3)O [kb NB 142-70] + COc1cccc2cc(-c3nc([C@H]4CC[C@H](C(=O)O)CC4)n4ncnc(N)c34)[nH]c12 [OSI-027] (partner 0.5 µM)
Method in brief: (§1)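 Lung cancer cell lines in 1536-well plates got either a single drug or a fixed anchor-drug dose together with five library-drug doses (not always all listed) in √10 steps, by pin tool, on the day after seeding. Nuclei were counted after 5 days, and relative viability is the treated-to-vehicle ratio of nuclei counts. Values are medians of duplicate plates.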

[1] = compound: NCC(=O)Nc1ccc(-n2nc(C(F)(F)F)cc2-c2ccc3c(ccc4ccccc43)c2)cc1 + CC(C)C[C@H](NC(=O)[C@H](Cc1ccccc1)NC(=O)c1cnccn1)B(O)O [Bortezomib] (partner 0.002 µM)
Method in brief: as §1

[2] = compound: NCC(=O)Nc1ccc(-n2nc(C(F)(F)F)cc2-c2ccc3c(ccc4ccccc43)c2)cc1 + CS(=O)(=O)CCNCc1ccc(-c2ccc3ncnc(Nc4ccc(OCc5cccc(F)c5)c(Cl)c4)c3c2)o1 [Lapatinib] (partner 2 µM)
Method in brief: as §1

[3] = compound: NCC(=O)Nc1ccc(-n2nc(C(F)(F)F)cc2-c2ccc3c(ccc4ccccc43)c2)cc1 + CC(=O)c1c(C)c2cnc(Nc3ccc(N4CCNCC4)cn3)nc2n(C2CCCC2)c1=O [Palbociclib] (partner 0.5 µM)
Method in brief: as §1

Row | Cell Line | relative viability (kb NB 142-70 + OSI-027; first compound 0.1 µM) | relative viability (kb NB 142-70 + OSI-027; first compound 1 µM) | relative viability (kb NB 142-70 + OSI-027; first compound 3.162 µM) | relative viability ([1]; first compound 0.02 µM) | relative viability ([1]; first compound 0.06325 µM) | relative viability ([1]; first compound 0.2 µM) | relative viability ([1]; first compound 0.6325 µM) | relative viability ([1]; first compound 2 µM) | relative viability ([2]; first compound 0.02 µM) | relative viability ([2]; first compound 0.06325 µM) | relative viability ([2]; first compound 0.2 µM) | relative viability ([2]; first compound 0.6325 µM) | relative viability ([2]; first compound 2 µM) | relative viability ([3]; first compound 0.02 µM) | relative viability ([3]; first compound 0.06325 µM) | relative viability ([3]; first compound 0.2 µM) | relative viability ([3]; first compound 0.6325 µM) | relative viability ([3]; first compound 2 µM)
1 | NCI-H596 | 0.931 | 0.773 | 0.509 | 1.27 | 1.1 | 0.883 | 1.96 | 1.05 | 1.13 | 1.09 | 1.11 | 1.09 | 1.19 |  |  |  |  | 
2 | NCI-H1944 | 0.386 | 0.443 | 0.426 |  |  |  |  |  | 0.813 | 0.888 | 0.752 | 0.801 | 0.876 | 0.333 | 0.353 | 0.35 | 0.32 | 0.355
3 | NCI-H1793 | 0.34 | 0.311 | 0.294 |  |  |  |  |  | 0.659 | 0.684 | 0.743 | 0.886 | 0.84 | 0.333 | 0.295 | 0.337 | 0.339 | 0.363
4 | A549 |  |  |  |  |  |  |  |  | 1.02 | 1.02 | 0.994 | 1.03 | 0.95 |  |  |  |  | 
5 | NCI-H358 | 0.669 | 0.464 | 0.105 |  |  |  |  |  | 0.553 | 0.323 | 0.41 | 0.528 | 0.491 | 0.158 | 0.111 | 0.136 | 0.122 | 0.145
6 | NCI-H1563 | 0.773 | 0.739 | 0.752 | 0.77 | 0.962 | 0.69 | 0.925 | 0.928 | 0.841 | 0.998 | 0.758 | 0.945 | 0.909 |  |  |  |  | 
7 | NCI-H1395 | 0.674 | 0.757 | 0.638 |  |  |  |  |  | 1.15 | 1.02 | 0.928 | 1.08 | 1.04 | 0.702 | 0.678 | 0.617 | 0.621 | 0.614
8 | NCI-H522 | 0.737 | 0.658 | 0.608 |  |  |  |  |  |  |  |  |  |  | 0.844 | 0.996 | 0.998 | 0.934 | 0.992
9 | IA-LM |  |  |  | 0.775 | 0.721 | 0.802 | 0.814 | 0.813 | 0.802 | 0.823 | 0.757 | 0.85 | 0.717 |  |  |  |  | 
10 | NCI-H1703 |  |  |  | 0.278 | 0.237 | 0.307 | 0.215 | 0.344 | 1.03 | 1.09 | 1.41 | 0.964 | 1.04 |  |  |  |  | 
11 | NCI-H441 | 0.556 | 0.58 | 0.277 | 0.931 | 0.481 | 0.308 | 0.409 | 0.361 |  |  |  |  |  | 0.242 | 0.258 | 0.265 | 0.228 | 0.25
12 | LCLC-103H | 0.493 | 0.452 | 0.454 | 1.03 | 1 | 1.13 | 1.07 | 1.1 |  |  |  |  |  | 0.41 | 0.503 | 0.483 | 0.413 | 0.504
13 | SW 900 | 0.552 | 0.478 | 0.295 |  |  |  |  |  |  |  |  |  |  | 0.513 | 0.661 | 0.534 | 0.535 | 0.641
